Like-named read-outs stand apart in the source and are kept apart here.
Experiments:
CYP3A4 [1] = target: T1, CYP3A4 (Homo sapiens, UniProt P08684); details: bortezomib 2 μM; human liver microsomes; cited from earlier work
Target sequence in this assay (P08684 whole entry): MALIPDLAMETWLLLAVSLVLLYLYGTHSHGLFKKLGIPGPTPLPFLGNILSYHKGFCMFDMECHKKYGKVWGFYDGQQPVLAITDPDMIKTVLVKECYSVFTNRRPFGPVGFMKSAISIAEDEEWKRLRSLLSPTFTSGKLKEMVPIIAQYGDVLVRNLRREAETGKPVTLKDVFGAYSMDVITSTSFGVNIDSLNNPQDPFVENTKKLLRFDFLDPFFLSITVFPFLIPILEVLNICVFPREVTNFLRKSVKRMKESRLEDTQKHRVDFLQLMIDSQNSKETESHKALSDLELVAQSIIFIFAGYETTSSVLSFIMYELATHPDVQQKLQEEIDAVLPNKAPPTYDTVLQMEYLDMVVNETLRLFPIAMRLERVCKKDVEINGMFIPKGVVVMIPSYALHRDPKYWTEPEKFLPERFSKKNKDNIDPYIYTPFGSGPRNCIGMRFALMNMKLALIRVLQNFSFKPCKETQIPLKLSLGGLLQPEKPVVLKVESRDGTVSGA

CYP2C8 = target: T2, CYP2C8 (Homo sapiens, UniProt P10632)
T2 sequence (P10632 1-490): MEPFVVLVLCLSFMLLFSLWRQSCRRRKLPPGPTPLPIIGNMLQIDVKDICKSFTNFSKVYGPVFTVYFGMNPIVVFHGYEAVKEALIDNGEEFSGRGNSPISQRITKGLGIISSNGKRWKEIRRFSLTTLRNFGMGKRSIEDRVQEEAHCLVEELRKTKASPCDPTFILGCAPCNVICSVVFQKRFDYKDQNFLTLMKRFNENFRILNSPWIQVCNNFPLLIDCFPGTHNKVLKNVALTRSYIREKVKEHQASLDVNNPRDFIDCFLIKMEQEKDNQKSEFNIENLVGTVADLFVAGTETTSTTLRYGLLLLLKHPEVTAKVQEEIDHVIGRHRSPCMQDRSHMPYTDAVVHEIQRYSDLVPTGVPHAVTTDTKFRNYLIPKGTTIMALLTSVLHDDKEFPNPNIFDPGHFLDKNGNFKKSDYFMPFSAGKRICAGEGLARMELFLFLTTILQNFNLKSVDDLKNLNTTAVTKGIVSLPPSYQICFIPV
Experimental: (§1) Each active ingredient was incubated at 0.1 μM at 37° C. […] The reaction is initiated by addition of NADPH 1 mM. The incubation is monitored in kinetic form. At the incubation timepoints of 7 min, 17 min, 30 min and then 60 min, an incubation aliquot (100 μL) is sampled and the enzymatic reaction is stopped by adding to that aliquot a to volume of solvent (100 μL of methanol) which is placed in ice for 10 minutes.
(§2) At each incubation timepoint, the active ingredient is quantified by high-performance liquid chromatography (HPLC) coupled with mass spectrometry (MS).

[2] = human
Experimental: as §1, §2

CYP2C9 = CYP2C9 (Homo sapiens, UniProt P11712)
Experimental: as §1, §2

CYP2D6 [3] = target: T3, CYP2D6 (Homo sapiens, UniProt P10635)
Experimental: as §1, §2

CYP2B6 [4] = target: T4, CYP2B6 (Homo sapiens, UniProt P20813)
T4 sequence (P20813 1-491): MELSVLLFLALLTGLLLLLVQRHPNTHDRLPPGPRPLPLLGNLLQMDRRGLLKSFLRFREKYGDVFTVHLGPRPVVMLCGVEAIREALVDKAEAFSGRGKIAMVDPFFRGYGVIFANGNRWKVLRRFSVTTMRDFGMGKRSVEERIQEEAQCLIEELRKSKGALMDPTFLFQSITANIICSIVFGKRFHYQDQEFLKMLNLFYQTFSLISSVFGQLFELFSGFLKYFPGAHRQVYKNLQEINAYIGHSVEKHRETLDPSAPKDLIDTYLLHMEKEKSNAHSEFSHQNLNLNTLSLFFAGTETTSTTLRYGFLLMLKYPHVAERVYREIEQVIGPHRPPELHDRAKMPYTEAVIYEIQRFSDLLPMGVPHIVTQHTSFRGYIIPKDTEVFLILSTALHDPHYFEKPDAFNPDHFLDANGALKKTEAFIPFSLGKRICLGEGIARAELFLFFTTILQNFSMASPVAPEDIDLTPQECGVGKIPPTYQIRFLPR
Experimental: as §1, §2

CYP1A2 = tested on: CYP1A2
Experimental: as §1, §2

CYP3A4 [5] = target: T1, CYP3A4; details: mirtazapine 2.5 to 1000 μM; human recombinant enzyme model; cited from earlier work
Target sequence in this assay (P08684 whole entry): as the sequence (P08684 whole entry) above

CYP2D6 [6] = target: T3, CYP2D6; details: mirtazapine 2.5 to 1000 μM; human recombinant enzyme model; cited from earlier work
CYP2B6 [7] = target: T4, CYP2B6; details: in a pool of human liver; cited from earlier work
CYP3A4 [8] = target: T1, CYP3A4
Experimental: as §1, §2
Target sequence in this assay (P08684 2-503): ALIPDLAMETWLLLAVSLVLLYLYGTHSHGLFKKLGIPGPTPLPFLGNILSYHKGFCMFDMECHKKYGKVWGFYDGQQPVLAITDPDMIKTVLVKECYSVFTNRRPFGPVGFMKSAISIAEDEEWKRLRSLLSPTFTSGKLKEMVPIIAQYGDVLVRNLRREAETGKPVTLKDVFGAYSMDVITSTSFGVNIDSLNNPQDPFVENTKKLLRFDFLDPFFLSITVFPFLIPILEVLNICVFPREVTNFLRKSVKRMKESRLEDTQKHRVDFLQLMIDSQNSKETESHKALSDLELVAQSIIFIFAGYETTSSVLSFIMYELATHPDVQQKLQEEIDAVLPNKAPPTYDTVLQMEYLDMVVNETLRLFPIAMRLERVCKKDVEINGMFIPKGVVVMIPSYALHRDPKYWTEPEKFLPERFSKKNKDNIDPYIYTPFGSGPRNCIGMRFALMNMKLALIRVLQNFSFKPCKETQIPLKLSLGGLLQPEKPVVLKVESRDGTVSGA

CYP3A4 [9] = target: T1, CYP3A4; details: healthy volunteers; itraconazole 100 mg; loperamide 4 mg; cited from earlier work
Target sequence in this assay (P08684 whole entry): as the sequence (P08684 whole entry) above

CYP3A4 [10] = target: T1, CYP3A4; details: healthy volunteer; ritonavir 600 mg; loperamide 16 mg; cited from earlier work
Target sequence in this assay (P08684 whole entry): as above

CYP2C9, sequence (P11712 whole entry): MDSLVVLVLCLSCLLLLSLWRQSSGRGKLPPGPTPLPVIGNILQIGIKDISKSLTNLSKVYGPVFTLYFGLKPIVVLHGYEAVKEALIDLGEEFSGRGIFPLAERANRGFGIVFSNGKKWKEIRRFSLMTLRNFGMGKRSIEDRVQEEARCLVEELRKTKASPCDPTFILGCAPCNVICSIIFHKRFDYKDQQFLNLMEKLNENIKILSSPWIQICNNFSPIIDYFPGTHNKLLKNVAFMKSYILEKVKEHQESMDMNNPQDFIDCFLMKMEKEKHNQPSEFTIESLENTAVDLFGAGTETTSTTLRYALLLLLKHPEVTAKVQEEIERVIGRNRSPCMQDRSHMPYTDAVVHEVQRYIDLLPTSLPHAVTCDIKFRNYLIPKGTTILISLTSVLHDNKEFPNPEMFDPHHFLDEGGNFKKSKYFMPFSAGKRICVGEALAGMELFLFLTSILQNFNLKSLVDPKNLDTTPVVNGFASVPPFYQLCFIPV
T3 sequence (P10635 whole entry): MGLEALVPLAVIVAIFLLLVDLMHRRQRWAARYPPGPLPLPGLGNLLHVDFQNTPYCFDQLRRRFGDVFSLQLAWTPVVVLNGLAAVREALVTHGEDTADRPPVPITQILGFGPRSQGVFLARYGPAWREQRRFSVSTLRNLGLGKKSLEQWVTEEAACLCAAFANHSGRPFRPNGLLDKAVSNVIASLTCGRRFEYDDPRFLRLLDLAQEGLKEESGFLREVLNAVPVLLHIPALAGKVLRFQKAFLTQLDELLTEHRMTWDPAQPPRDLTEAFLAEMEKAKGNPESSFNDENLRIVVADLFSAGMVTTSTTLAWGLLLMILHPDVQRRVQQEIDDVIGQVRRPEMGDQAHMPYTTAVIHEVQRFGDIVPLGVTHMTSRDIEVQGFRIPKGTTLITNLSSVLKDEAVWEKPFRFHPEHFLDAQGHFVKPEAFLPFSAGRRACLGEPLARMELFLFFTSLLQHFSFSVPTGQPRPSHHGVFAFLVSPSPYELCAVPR

Row | Structure (SMILES) | inhibition of metabolism by anti-CYP 3A4 monoclonal antibody = % involvement of CYP3A4, expected data (Uttamsingh et al.) (CYP3A4 [1]) [%] | inhibition of intrinsic clearance = % involvement of CYP2C8 in the oxidative metabolism (kit of isolated microsomes) (CYP2C8) | intrinsic clearance in the presence of control microsomes [2] | inhibition of intrinsic clearance = % involvement of CYP2C9 in the oxidative metabolism (kit of isolated microsomes) (CYP2C9) | inhibition of intrinsic clearance = % involvement of CYP2D6 in the oxidative metabolism (kit of isolated microsomes) (CYP2D6 [3]) | inhibition of intrinsic clearance = % involvement of CYP2B6 in the oxidative metabolism (kit of isolated microsomes) (CYP2B6 [4]) | inhibition of intrinsic clearance = % involvement of CYP1A2 in the oxidative metabolism (kit of isolated microsomes) (CYP1A2) | % involvement of CYP3A4 in the metabolism, expected data (Störmer et al.) (CYP3A4 [5]) [%] | % involvement of CYP2D6 in the metabolism, expected data (Störmer et al.) (CYP2D6 [6]) [%] | % involvement of CYP2B6 in the metabolism, expected data (Obach et al.) (CYP2B6 [7]) [%] | inhibition of intrinsic clearance = % involvement of CYP3A4 in the oxidative metabolism (kit of isolated microsomes) (CYP3A4 [8]) | increase in exposure, factor (CYP3A4 [9]) | increase in exposure, factor (CYP3A4 [10])
1 | CC(C)C[C@H](NC(=O)[C@H](Cc1ccccc1)NC(=O)c1cnccn1)B(O)O [bortezomib] | 79 | No significant inhibition | 6.9-11 ml/min/g of proteins | No significant inhibition | No significant inhibition | No significant inhibition | No significant inhibition |  |  |  |  |  | 
2 | CN1CCN2c3ncccc3Cc3ccccc3C2C1 (centres unmarked) [mirtazapine] |  | No significant inhibition | 3.9-7.8 ml/min/g of proteins | No significant inhibition |  | No significant inhibition |  | 23 | 39 |  |  |  | 
3 | CN[C@H]1CC[C@@H](c2ccc(Cl)c(Cl)c2)c2ccccc21 [sertraline] |  | No significant inhibition | 52.5-70.5 ml/min/g of proteins | No significant inhibition |  |  |  |  |  | 60 | No significant inhibition |  | 
4 | CN(C)C(=O)C(CCN1CCC(O)(c2ccc(Cl)cc2)CC1)(c1ccccc1)c1ccccc1 [loperamide] |  |  |  |  |  |  |  |  |  |  |  | 3.8 | 2.65

— US20150247179A1 (Les Laboratoires Servier, priority 2013, published 2015)
